The experiment relates to 14C-cholesterol absorption. Particulars: 0.2 μmol/kg by gavage, C57BL/6 female mice, procedure A. On the procedure:
In Vivo Testing of Cholesterol Absorption Inhibitors (A)
C57BL/6 female mice were maintained on regular chow diet and housed in individual cages to collect faeces. Mice were fasted for 3 hours and then gavaged with vehicle or compound. Half an hour later the mice were gavaged with radiolabelled cholesterol. Six hours after the ^14C-cholesterol gavage blood samples were taken via the tail and plasma prepared to determine how much cholesterol were absorbed. 24 hours after the gavage of ^14C-cholesterol the mice were bled and plasma were prepared for analysis. Faeces were collected for 24 hours to assess absorption efficiency.

Structures are written as SMILES.

Take `CC(C)(c1ccccc1)[C@@H](NC(=O)CNC(=O)COc1ccc([C@@H]2[C@@H](SCC(O)c3ccc4c(c3)CCO4)C(=O)N2c2ccc(F)cc2)cc1)C(=O)NCC(=O)O` (stereo partly drawn) [Example 1, N-({4-[(2R,3R)-3-{[2-(2,3-dihydro-1-benzofuran-5-yl)-2-hydroxyethyl]thio}-1-(4-fluorophenyl)-4-oxoazetidin-2-yl]phenoxy}acetyl)glycyl-b,b-dimethyl-D-phenylalanylglycine]: the “inhibition of 14C-cholesterol absorption” value is listed as 36%.

For the origin of these results see patent publication US20100048529A1, “New 2-Azetidinone Derivatives Useful In The Treatment Of Hyperlipidaemic Conditions” (ASTRAZENECA AB, priority 2005, published 2010).
